Data as given in ChEMBL document CHEMBL1131152, “In vitro and in vivo activities of oligodeoxynucleotide-based thrombin inhibitors containing neutral formacetal linkages” (J Med Chem, 1998).

Molecular target: Prothrombin (Homo sapiens) (UniProt P00734)
Test: Relative prothrombin time was determined as the activity of the test ODN (oligodeoxynucleotide) relative to that of GS-522

| Structure (SMILES) | Relative PT |
| --- | --- |
| Cc1cn([C@H]2C[C@H](OCOC[C@H]3O[C@@H](n4cc(C)c(=O)[nH]c4=O)C[C@@H]3OP(=O)(O)OC[C@H]3O[C@@H](n4cnc5c(=O)nc(N)[nH]c54)C[C@@H]3OP(=O)(O)OC[C@H]3O[C@@H](n4cnc5c(=O)[nH]c(=N)[nH]c54)C[C@@H]3OCOC[C@H]3O[C@@H](n4cc(C)c(=O)[nH]c4=O)C[C@@H]3OP(=O)(O)OC[C@H]3O[C@@H](n4cnc5c(=O)nc(N)[nH]c54)C[C@@H]3OCOC[C@H]3O[C@@H](n4cc(C)c(=O)[nH]c4=O)C[C@@H]3OP(=O)(O)OC[C@H]3O[C@@H](n4cnc5c(=O)nc(N)[nH]c54)C[C@@H]3OP(=O)(O)OC[C@H]3O[C@@H](n4cnc5c(=O)[nH]c(=N)[nH]c54)C[C@@H]3OP(=O)(O)OC[C@H]3O[C@@H](n4cc(C)c(=O)[nH]c4=O)C[C@@H]3OCOC[C@H]3O[C@@H](n4cc(C)c(=O)[nH]c4=O)C[C@@H]3OP(=O)(O)OC[C@H]3O[C@@H](n4cnc5c(=O)[nH]c(=N)[nH]c54)C[C@@H]3OP(=O)(O)OC[C@H]3O[C@@H](n4cnc5c(=O)nc(N)[nH]c54)C[C@@H]3O)[C@@H](COP(=O)(O)O[C@H]3C[C@H](n4cnc5c(=O)[nH]c(=N)[nH]c54)O[C@@H]3COP(=O)(O)O[C@H]3C[C@H](n4cnc5c(=O)nc(N)[nH]c54)O[C@@H]3COP(=O)(O)O)O2)c(=O)[nH]c1=O | 0.8 |
| Cc1cn([C@H]2C[C@H](OCOC[C@H]3O[C@@H](n4cnc5c(=O)nc(N)[nH]c54)C[C@@H]3OP(=O)(O)OC[C@H]3O[C@@H](n4cc(C)c(=O)[nH]c4=O)C[C@@H]3OP(=O)(O)OC[C@H]3O[C@@H](n4cnc5c(=O)nc(N)[nH]c54)C[C@@H]3OP(=O)(O)OC[C@H]3O[C@@H](n4cnc5c(=O)[nH]c(=N)[nH]c54)C[C@@H]3OP(=O)(O)OC[C@H]3O[C@@H](n4cc(C)c(=O)[nH]c4=O)C[C@@H]3OP(=O)(O)OC[C@H]3O[C@@H](n4cc(C)c(=O)[nH]c4=O)C[C@@H]3OP(=O)(O)OC[C@H]3O[C@@H](n4cnc5c(=O)[nH]c(=N)[nH]c54)C[C@@H]3OP(=O)(O)OC[C@H]3O[C@@H](n4cnc5c(=O)nc(N)[nH]c54)C[C@@H]3O)[C@@H](COP(=O)(O)O[C@H]3C[C@H](n4cnc5c(=O)[nH]c(=N)[nH]c54)O[C@@H]3COP(=O)(O)O[C@H]3C[C@H](n4cnc5c(=O)nc(N)[nH]c54)O[C@@H]3COP(=O)(O)O[C@H]3C[C@H](n4cc(C)c(=O)[nH]c4=O)O[C@@H]3COP(=O)(O)O[C@H]3C[C@H](n4cc(C)c(=O)[nH]c4=O)O[C@@H]3COP(=O)(O)O[C@H]3C[C@H](n4cnc5c(=O)nc(N)[nH]c54)O[C@@H]3COP(=O)(O)O[C@H]3C[C@H](n4cnc5c(=O)nc(N)[nH]c54)O[C@@H]3COP(=O)(O)O)O2)c(=O)[nH]c1=O | 0.8 |
| Cc1cn([C@H]2C[C@H](OCOC[C@H]3O[C@@H](n4cnc5c(=O)[nH]c(=N)[nH]c54)C[C@@H]3OP(=O)(O)OC[C@H]3O[C@@H](n4cnc5c(=O)nc(N)[nH]c54)C[C@@H]3O)[C@@H](COP(=O)(O)O[C@H]3C[C@H](n4cc(C)c(=O)[nH]c4=O)O[C@@H]3COP(=O)(O)O[C@H]3C[C@H](n4cnc5c(=O)[nH]c(=N)[nH]c54)O[C@@H]3COP(=O)(O)O[C@H]3C[C@H](n4cnc5c(=O)nc(N)[nH]c54)O[C@@H]3COP(=O)(O)O[C@H]3C[C@H](n4cc(C)c(=O)[nH]c4=O)O[C@@H]3COP(=O)(O)O[C@H]3C[C@H](n4cnc5c(=O)[nH]c(=N)[nH]c54)O[C@@H]3COP(=O)(O)O[C@H]3C[C@H](n4cc(C)c(=O)[nH]c4=O)O[C@@H]3COP(=O)(O)O[C@H]3C[C@H](n4cnc5c(=O)[nH]c(=N)[nH]c54)O[C@@H]3COP(=O)(O)O[C@H]3C[C@H](n4cnc5c(=O)nc(N)[nH]c54)O[C@@H]3COP(=O)(O)O[C@H]3C[C@H](n4cc(C)c(=O)[nH]c4=O)O[C@@H]3COP(=O)(O)O[C@H]3C[C@H](n4cc(C)c(=O)[nH]c4=O)O[C@@H]3COP(=O)(O)O[C@H]3C[C@H](n4cnc5c(=O)nc(N)[nH]c54)O[C@@H]3COP(=O)(O)O[C@H]3C[C@H](n4cnc5c(=O)nc(N)[nH]c54)O[C@@H]3COP(=O)(O)O)O2)c(=O)[nH]c1=O | 0.6 |
| Cc1cn([C@H]2C[C@H](OCOC[C@H]3O[C@@H](n4cc(C)c(=O)[nH]c4=O)C[C@@H]3OP(=O)(O)OC[C@H]3O[C@@H](n4cnc5c(=O)nc(N)[nH]c54)C[C@@H]3OP(=O)(O)OC[C@H]3O[C@@H](n4cnc5c(=O)[nH]c(=N)[nH]c54)C[C@@H]3OP(=O)(O)OC[C@H]3O[C@@H](n4cc(C)c(=O)[nH]c4=O)C[C@@H]3OP(=O)(O)OC[C@H]3O[C@@H](n4cnc5c(=O)nc(N)[nH]c54)C[C@@H]3OP(=O)(O)OC[C@H]3O[C@@H](n4cc(C)c(=O)[nH]c4=O)C[C@@H]3OP(=O)(O)OC[C@H]3O[C@@H](n4cnc5c(=O)nc(N)[nH]c54)C[C@@H]3OP(=O)(O)OC[C@H]3O[C@@H](n4cnc5c(=O)[nH]c(=N)[nH]c54)C[C@@H]3OP(=O)(O)OC[C@H]3O[C@@H](n4cc(C)c(=O)[nH]c4=O)C[C@@H]3OP(=O)(O)OC[C@H]3O[C@@H](n4cc(C)c(=O)[nH]c4=O)C[C@@H]3OP(=O)(O)OC[C@H]3O[C@@H](n4cnc5c(=O)[nH]c(=N)[nH]c54)C[C@@H]3OP(=O)(O)OC[C@H]3O[C@@H](n4cnc5c(=O)nc(N)[nH]c54)C[C@@H]3O)[C@@H](COP(=O)(O)O[C@H]3C[C@H](n4cnc5c(=O)[nH]c(=N)[nH]c54)O[C@@H]3COP(=O)(O)O[C@H]3C[C@H](n4cnc5c(=O)nc(N)[nH]c54)O[C@@H]3COP(=O)(O)O)O2)c(=O)[nH]c1=O | 1.1 |
| Cc1cn([C@H]2C[C@H](OP(=O)(O)OC[C@H]3O[C@@H](n4cnc5c(=O)nc(N)[nH]c54)C[C@@H]3OCOC[C@H]3O[C@@H](n4cnc5c(=O)[nH]c(=N)[nH]c54)C[C@@H]3OP(=O)(O)OC[C@H]3O[C@@H](n4cc(C)c(=O)[nH]c4=O)C[C@@H]3OP(=O)(O)OC[C@H]3O[C@@H](n4cnc5c(=O)[nH]c(=N)[nH]c54)C[C@@H]3OP(=O)(O)OC[C@H]3O[C@@H](n4cc(C)c(=O)[nH]c4=O)C[C@@H]3OP(=O)(O)OC[C@H]3O[C@@H](n4cnc5c(=O)nc(N)[nH]c54)C[C@@H]3OP(=O)(O)OC[C@H]3O[C@@H](n4cnc5c(=O)[nH]c(=N)[nH]c54)C[C@@H]3OP(=O)(O)OC[C@H]3O[C@@H](n4cc(C)c(=O)[nH]c4=O)C[C@@H]3OP(=O)(O)OC[C@H]3O[C@@H](n4cc(C)c(=O)[nH]c4=O)C[C@@H]3OP(=O)(O)OC[C@H]3O[C@@H](n4cnc5c(=O)[nH]c(=N)[nH]c54)C[C@@H]3OCOC[C@H]3O[C@@H](n4cnc5c(=O)nc(N)[nH]c54)C[C@@H]3O)[C@@H](COP(=O)(O)O[C@H]3C[C@H](n4cc(C)c(=O)[nH]c4=O)O[C@@H]3COP(=O)(O)O[C@H]3C[C@H](n4cnc5c(=O)nc(N)[nH]c54)O[C@@H]3COP(=O)(O)O[C@H]3C[C@H](n4cnc5c(=O)[nH]c(=N)[nH]c54)O[C@@H]3COP(=O)(O)O)O2)c(=O)[nH]c1=O | 0.6 |
| Cc1cn([C@H]2C[C@H](OP(=O)(O)OC[C@H]3O[C@@H](n4cnc5c(=O)nc(N)[nH]c54)C[C@@H]3OCOC[C@H]3O[C@@H](n4cnc5c(=O)[nH]c(=N)[nH]c54)C[C@@H]3OP(=O)(O)OC[C@H]3O[C@@H](n4cc(C)c(=O)[nH]c4=O)C[C@@H]3OP(=O)(O)OC[C@H]3O[C@@H](n4cnc5c(O)nc(=N)[nH]c54)C[C@@H]3OP(=O)(O)OC[C@H]3O[C@@H](n4cc(C)c(=O)[nH]c4=O)C[C@@H]3OP(=O)(O)OC[C@H]3O[C@@H](n4cnc5c(=O)nc(N)[nH]c54)C[C@@H]3OP(=O)(O)OC[C@H]3O[C@@H](n4cnc5c(=O)[nH]c(=N)[nH]c54)C[C@@H]3OP(=O)(O)OC[C@H]3O[C@@H](n4cc(C)c(=O)[nH]c4=O)C[C@@H]3OP(=O)(O)OC[C@H]3O[C@@H](n4cc(C)c(=O)[nH]c4=O)C[C@@H]3OP(=O)(O)OC[C@H]3O[C@@H](n4cnc5c(=O)[nH]c(=N)[nH]c54)C[C@@H]3OP(=O)(O)OC[C@H]3O[C@@H](n4cnc5c(=O)nc(N)[nH]c54)C[C@@H]3O)[C@@H](COP(=O)(O)O[C@H]3C[C@H](n4cc(C)c(=O)[nH]c4=O)O[C@@H]3COP(=O)(O)O[C@H]3C[C@H](n4cnc5c(=O)nc(N)[nH]c54)O[C@@H]3COCO[C@H]3C[C@H](n4cnc5c(=O)[nH]c(=N)[nH]c54)O[C@@H]3COP(=O)(O)O)O2)c(=O)[nH]c1=O | 0.6 |
| Cc1cn([C@H]2C[C@H](OCOC[C@H]3O[C@@H](n4cnc5c(=O)nc(N)[nH]c54)C[C@@H]3OP(=O)(O)OC[C@H]3O[C@@H](n4cnc5c(=O)[nH]c(=N)[nH]c54)C[C@@H]3OP(=O)(O)OC[C@H]3O[C@@H](n4cc(C)c(=O)[nH]c4=O)C[C@@H]3OCOC[C@H]3O[C@@H](n4cc(C)c(=O)[nH]c4=O)C[C@@H]3OP(=O)(O)OC[C@H]3O[C@@H](n4cnc5c(=O)[nH]c(=N)[nH]c54)C[C@@H]3OP(=O)(O)OC[C@H]3O[C@@H](n4cnc5c(=O)nc(N)[nH]c54)C[C@@H]3O)[C@@H](COP(=O)(O)O[C@H]3C[C@H](n4cnc5c(O)nc(=N)[nH]c54)O[C@@H]3COP(=O)(O)O[C@H]3C[C@H](n4cc(C)c(=O)[nH]c4=O)O[C@@H]3COP(=O)(O)O[C@H]3C[C@H](n4cnc5c(=O)[nH]c(=N)[nH]c54)O[C@@H]3COP(=O)(O)O[C@H]3C[C@H](n4cnc5c(=O)nc(N)[nH]c54)O[C@@H]3COP(=O)(O)O[C@H]3C[C@H](n4cc(C)c(=O)[nH]c4=O)O[C@@H]3COCO[C@H]3C[C@H](n4cc(C)c(=O)[nH]c4=O)O[C@@H]3COP(=O)(O)O[C@H]3C[C@H](n4cnc5c(=O)nc(N)[nH]c54)O[C@@H]3COP(=O)(O)O[C@H]3C[C@H](n4cnc5c(=O)[nH]c(=N)[nH]c54)O[C@@H]3COP(=O)(O)O)O2)c(=O)[nH]c1=O | 1.1 |
